We go through 9 molecules from article PMC12930396, “Positive modulators of N-methyl-D-aspartate receptor: structure–activity relationship study on steroidal C-17 and C-20 oxime ethers” (RSC Advances, 2026).

“Also recorded” adds a separate entry of the source.

Series [1] addresses GluN1/GluN2B receptors. The note with it: cited from earlier work; for EC50: read-out: EC50, potentiation of GluN1/GluN2B receptor responses.
For series [2], the target named is T1, GluN1/GluN2B receptors (Rattus norvegicus, UniProt P35439+Q00960).
T1 construct: expressed in transfected cells; host or cells: HEK293 cells (ATCC No. CRL-1573)
In words: Patch-clamp: modulation of glutamate-induced currents of recombinant GluN1/GluN2B receptors expressed in HEK293 cells. The series is classed as cell-based. The note with it: for h ± SEM (apparent Hill coefficient): concentration-response fit; for h ± SEM (apparent Hill coefficient) / EC50 / Emax: mean ± SEM; for EC50: half-maximal potentiation of currents evoked by 1 µM glutamate; for EC50 / Emax / inhibition at 3 µM: HEK293; for Emax: maximal potentiation of currents evoked by 1 µM glutamate and 30 µM glycine; for Modulatory profile at NMDARs: GluN1/GluN2B in HEK293; for inhibition at 3 µM: at 3 µM compound, read-out: NAM effect (degree of inhibition); for inhibition at 3 µM / PAM effect (degree of potentiation): 1 µM glutamate. The procedure:
To investigate the effect of compounds 11–23 on the activity of NMDARs, electrophysiological measurements were performed on HEK293 cells that were co-transfected with cDNAs containing genes encoding for the rat GluN1-1a and GluN2B subunits. The degree of modulation (E; potentiation/inhibition) for the newly synthesized compounds was determined using the following formula: [drawing 1] where Ie is the value of the current amplitude during glutamate and compound coapplication, and Ia is the current amplitude value for glutamate application. […] The results are presented as mean ± standard error of the mean (SEM), with n equal to the number of independent measurements. One-way analysis of variance (ANOVA) was used for multiple comparisons (unless otherwise stated, a value of P ≤ 0.05 was used for the determination of significance).
We have evaluated the relationship between oxime derivatives 11–23 and their modulatory effect on recombinant GluN1/GluN2B receptors. Due to the […] effect of neurosteroid-based PAMs at NMDARs[20,44]
HEK293 cells (American Type Culture Collection, ATCC No. CRL-1573, Rockville, MD, USA) were cultured in Opti-MEM I (Invitrogen, Carlsbad, CA, USA) supplemented with 5% fetal bovine serum (FBS; PAN Biotech, Aidenbach, Germany) at 37 °C in 5% CO2. 24 h before transfection, HEK293 cells were plated in 24-well plates at a density of 2 × 10^5 cells per well. The next day, the cells were transfected with cDNA encoding rat GluN1-1a (GluN1; GenBank accession number U08261)[56] and GluN2B (GenBank accession number M91562)[57] subunits (in the pCI-neo expression vector), along with green fluorescent protein (GFP; in the pQBI 25 vector, Takara, Tokyo, Japan). Briefly, equal amounts (200 ng) of cDNAs encoding GluN1-1a, GluN2B, and GFP were mixed with 0.6 µl of Matra-A reagent (IBA, Gottingen, Germany) in 50 µL of Opti-MEM I and added to confluent HEK293 cells cultured in 24-well plates. After trypsinization, the cells were resuspended in Opti-MEM I containing 1% FBS, supplemented with 20 mM MgCl2, 1 mM D,L-2-amino-5-phosphonovaleric acid, 3 mM kynurenic acid, and 1 µM ketamine, and plated on 30 mm glass coverslips coated with collagen and poly-L-lysine. Transfected cells were identified by GFP epifluorescence. Electrophysiology experiments were performed 24–48 h after transfection.
Whole-cell current recordings, voltage-clamped at a holding potential of −60 mV, were performed at room temperature using a patch-clamp amplifier (Axopatch 200B; Molecular Devices, Sunnyvale, CA, USA) after capacitance and series resistance (<10 MΩ) compensation (80–90%). NMDAR current responses were low-pass filtered at 2 kHz, digitally sampled at 5 kHz, and analysed using pClamp software (version 10.6; Molecular Devices). Patch pipettes (3–5 MΩ), pulled from borosilicate glass, were filled with an intracellular solution (ICS) containing (in mM): 15 CsCl, 10 BAPTA, 3 MgCl2, 1 CaCl2, 120 gluconic acid, 10 HEPES, and 2 ATP-Mg salt (pH adjusted to 7.2 with CsOH). The extracellular solution (ECS) contained (in mM): 160 NaCl, 2.5 KCl, 0.2 EDTA, 10 glucose, 10 HEPES, and 0.7 CaCl2 (pH adjusted to 7.3 with NaOH). NMDAR responses were induced by 1 µM glutamate and 30 µM glycine. 1% DMSO was present in all control and testing solutions. Solution applications were performed using a microprocessor-controlled multibarrel fast-perfusion system with a solution exchange rate around the cells of ∼10 ms.[58]

Series [3] can be described thus: in vitro. The note with it: pH 7.4; for half-life at 10 µM: rat, microsomes; for Metabolic stability in rat liver microsomes: 1 h, 10 µM. The method, then:
The reactions were terminated by the addition of four volumes of ice-cold methanol, mixed vigorously, and left at −20 °C for 1h. After that, the samples were centrifuged and the supernatants were analysed by means of ECHO-MS® System (Sciex, Framingham, MA, USA). Zero time points were prepared by adding ice-cold methanol to the mixture of the compound with cofactors before the addition of microsomes. […] Intrinsic clearance (CLint) was calculated using the following formula: [drawing 4] where V is the incubation volume per milligram of microsomal protein (µL mg^−1) and t1/2 is the microsomal half-life.
Background: Liver microsomes are a subcellular fraction often used to study metabolism.

The nature of series [4]: in vitro. The note with it: pH 7.4; for PAMPA permeability Retention (mass retention): 5 h, 100 µM; for Papp at 5 h, 100 µM: PAMPA. The procedure:
Permeability was quantified using permeability coefficients (Pe) and mass retention, the latter representing the proportion of compound retained in the membrane.
Permeation experiments were conducted in polystyrene 96-well filter plates with PVDF membrane pre-coated with structured layers of phospholipids (Corning Gentest™) according to the manufacturer's instructions. Briefly, the plate was warmed to room temperature, and meanwhile, the solutions of the compounds were diluted from 10 mM DMSO stocks to TRIS–HCl buffer pH 7.4 to reach a 100 µM final concentration. The DMSO concentration in the samples was 1%. Then, 300 µL of these solutions were transferred into the donor (receiver) plate wells, and 200 µL of the (TRIS) buffer was added to the acceptor (filter) plate wells. The filter plate and receiver plate were assembled and incubated for 5 h on an orbital shaker (300 rpm). After this, the concentration of the tested substances in both the donor and acceptor compartments was determined with use of LC/MS. Liquid chromatography was performed using an ExionLC AD pump and autosampler from Sciex (Framingham, MA, USA). […] The mobile phase flow rate was 300 µL min^−1. The column Synergi Fusion-RP from Phenomenex (Torrance, CA, USA) was used and was kept at 40 °C during the analysis.
Background: The PAMPA barrier holds no transporters, so it reflects passive diffusion.

T1 sequence (Q00960 27-1482, other chains not shown): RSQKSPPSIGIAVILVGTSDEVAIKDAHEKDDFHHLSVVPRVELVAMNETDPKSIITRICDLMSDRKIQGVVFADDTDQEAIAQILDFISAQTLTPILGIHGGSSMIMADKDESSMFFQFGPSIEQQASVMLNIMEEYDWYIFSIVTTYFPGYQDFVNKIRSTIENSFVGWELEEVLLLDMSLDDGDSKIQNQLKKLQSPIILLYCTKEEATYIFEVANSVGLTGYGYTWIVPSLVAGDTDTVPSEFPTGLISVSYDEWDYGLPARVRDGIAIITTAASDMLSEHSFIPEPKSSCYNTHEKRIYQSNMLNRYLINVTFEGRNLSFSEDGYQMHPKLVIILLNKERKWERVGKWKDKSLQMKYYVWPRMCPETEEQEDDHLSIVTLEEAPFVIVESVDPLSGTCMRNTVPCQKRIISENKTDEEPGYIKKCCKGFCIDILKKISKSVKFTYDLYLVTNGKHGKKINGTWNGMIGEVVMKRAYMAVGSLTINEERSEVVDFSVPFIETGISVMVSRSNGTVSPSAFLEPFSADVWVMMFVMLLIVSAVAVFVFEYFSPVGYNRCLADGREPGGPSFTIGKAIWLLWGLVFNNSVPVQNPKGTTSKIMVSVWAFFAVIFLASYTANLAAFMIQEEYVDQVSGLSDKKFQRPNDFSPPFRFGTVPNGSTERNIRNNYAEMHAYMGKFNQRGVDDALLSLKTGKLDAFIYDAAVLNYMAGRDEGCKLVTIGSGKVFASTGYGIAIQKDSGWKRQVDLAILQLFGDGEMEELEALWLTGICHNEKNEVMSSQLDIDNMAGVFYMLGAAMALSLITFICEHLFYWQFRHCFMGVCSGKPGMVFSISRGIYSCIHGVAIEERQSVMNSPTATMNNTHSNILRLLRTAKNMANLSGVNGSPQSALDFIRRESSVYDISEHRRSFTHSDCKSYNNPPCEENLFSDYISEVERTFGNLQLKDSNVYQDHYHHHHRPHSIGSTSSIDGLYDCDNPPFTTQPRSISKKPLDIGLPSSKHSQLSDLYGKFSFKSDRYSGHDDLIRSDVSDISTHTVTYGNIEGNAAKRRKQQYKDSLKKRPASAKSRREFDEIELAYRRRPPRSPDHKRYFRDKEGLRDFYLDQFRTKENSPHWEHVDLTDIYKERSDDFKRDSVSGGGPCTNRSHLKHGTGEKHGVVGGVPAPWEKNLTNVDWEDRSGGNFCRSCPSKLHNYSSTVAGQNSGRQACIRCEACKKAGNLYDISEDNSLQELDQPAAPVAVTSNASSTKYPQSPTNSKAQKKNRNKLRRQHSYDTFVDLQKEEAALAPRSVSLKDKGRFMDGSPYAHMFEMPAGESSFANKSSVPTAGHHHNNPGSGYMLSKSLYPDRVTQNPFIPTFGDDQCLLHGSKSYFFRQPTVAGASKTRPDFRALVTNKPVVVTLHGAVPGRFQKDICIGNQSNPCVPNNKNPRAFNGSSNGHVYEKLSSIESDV

Take `CC[C@@H](C)[C@H]1CCC2C3CC[C@@H]4C[C@H](OS(=O)(=O)O)CC[C@]4(C)C3CC[C@@]21C` (some centres unmarked) [Compound 1]: at GluN1/GluN2B receptors [1] (read-out: IC50, inhibition of currents of GluN1/GluN2B receptors), the IC50 is 0.09 µM.
As to `C[C@@]12CCCC1C1CC[C@@H]3C[C@H](OC(=O)CCC(=O)O)CC[C@]3(C)C1CC2` (some centres unmarked) [Compound 2], in the series on GluN1/GluN2B receptors [1], the “Emax, potentiation of GluN1/GluN2B receptor responses” value is listed as 452% and the EC50 was 7.4 µM.
For `C[C@]12CC[C@H](OC(=O)CCCC(=O)O)CC1=CCC1C2CC[C@]2(C)C(=O)CCC12` (some centres unmarked) [Compound 5], in the series with GluN1/GluN2B receptors [1], the “Emax, potentiation of GluN1/GluN2B receptor responses” value is 154% and the EC50 was 151 µM.
One may read the Emax as the maximal effect, on the per cent scale that the assay sets. Usually half-life stands for how long it takes for the measured level to halve. A low value points to rapid decline. In the case of `C/C(=N\OCCN1CCOCC1)[C@H]1CCC2C3CC=C4C[C@@H](OC(=O)CCCC(=O)O)CC[C@]4(C)C3CC[C@@]21C` (stereo partly drawn) [Compound 13, 20-Oxo-pregn-5-en-3β-yl hemiglutarate O-(3-morpholinoethyl)oxime], on GluN1/GluN2B receptors [2], the “h ± SEM (apparent Hill coefficient)” value stood at 2.8 ± 0.2, the EC50 was 34.7 ± 4.2 µM and the maximum response (Emax) is 111 ± 11%. This molecule registered a half-life at 10 µM in “in vitro [3]” greater than 1 h. In the series “in vitro [4]”, the “PAMPA permeability Retention (mass retention)” value (“PAMPA permeability Retention” for short) is recorded as 95%.
The Papp is a coefficient for how fast a substance crosses the barrier. Take `CO/N=C(\C)[C@H]1CCC2C3CC=C4C[C@@H](OC(=O)CCCC(=O)O)CC[C@]4(C)C3CC[C@@]21C` (stereo partly drawn) [Compound 17, 20-Oxo-pregn-5-en-3β-yl hemiglutarate O-methyloxime]: the “Potency relative to PES” value at GluN1/GluN2B receptors [2] (EC50 compared with PES) is “over 3.5 fold”. Also, on GluN1/GluN2B receptors [2], the “h ± SEM (apparent Hill coefficient)” value was found to be 1.6 ± 0.1, the EC50 was determined as 6.1 ± 0.7 µM and the Emax came to 503 ± 85%. The same molecule showed a half-life at 10 µM in the series “in vitro [3]” greater than 1 h. Also, in “in vitro [4]”, the “PAMPA permeability Retention” value is reported as 95% and the Papp at 5 h, 100 µM was found to be 5.5 ×10⁻⁶ cm/s.
What is called inhibition is the relative decrease from the control value, in per cent. Consider `CCCO/N=C(\C)[C@H]1CCC2C3CC=C4C[C@@H](OC(=O)CCCC(=O)O)CC[C@]4(C)C3CC[C@@]21C` (stereo partly drawn) [Compound 18, 20-Oxo-pregn-5-en-3β-yl hemiglutarate O-propyloxime], for which the “Modulatory profile at NMDARs” value on GluN1/GluN2B receptors [2] is on record as “not identified as PAMs; also recorded: complex, concentration-dependent activity profile”. For the same molecule, the inhibition at 3 µM at GluN1/GluN2B receptors [2] came to 7%. Moreover, the “PAM effect (degree of potentiation)” value on GluN1/GluN2B receptors [2] (at 10 µM compound) stood at 75 ± 21%; on GluN1/GluN2B receptors [2] (at 30 µM compound), 108 ± 17%. This molecule registered a half-life at 10 µM in “in vitro [3]” greater than 1 h. Besides, the “PAMPA permeability Retention” value in the series “in vitro [4]” was 100%.
As for `C/C(=N\OC(C)C)[C@H]1CCC2C3CC=C4C[C@@H](OC(=O)CCCC(=O)O)CC[C@]4(C)C3CC[C@@]21C` (stereo partly drawn) [Compound 19, 20-Oxo-pregn-5-en-3β-yl hemiglutarate O-isopropyloxime], on GluN1/GluN2B receptors [2], the “Modulatory profile at NMDARs” value is reported as “not identified as PAMs; also recorded: complex, concentration-dependent activity profile” and the inhibition at 3 µM came out at 27%. The “PAM effect (degree of potentiation)” value on GluN1/GluN2B receptors [2] (at 10 µM compound) was found to be 81 ± 20%. The “PAM effect (degree of potentiation)” value at GluN1/GluN2B receptors [2] (at 30 µM compound) came out at 169 ± 55%. In the series “in vitro [3]”, the “Metabolic stability in rat liver microsomes” value (“Metabolic stability” for short) is listed as “no detectable metabolism after 60 min” and the half-life at 10 µM was greater than 1 h. In the series “in vitro [4]”, the “PAMPA permeability Retention” value was determined as 99%.
As to `C=CCO/N=C(\C)[C@H]1CCC2C3CC=C4C[C@@H](OC(=O)CCCC(=O)O)CC[C@]4(C)C3CC[C@@]21C` (stereo partly drawn) [Compound 20, 20-Oxo-pregn-5-en-3β-yl hemiglutarate O-(2-propenyl)oxime], at GluN1/GluN2B receptors [2], the “h ± SEM (apparent Hill coefficient)” value was determined as 2.0 ± 0.2, the EC50 was 12.6 ± 2.9 µM and the Emax turned out to be 317 ± 43%. In the series “in vitro [3]”, the “Metabolic stability” value is recorded as “no detectable metabolism after 60 min” and the half-life at 10 µM is greater than 1 h. For the same molecule, in the series “in vitro [4]”, the “PAMPA permeability Retention” value worked out at 99% and the apparent permeability coefficient (Papp) at 5 h, 100 µM was 7.24 ×10⁻⁶ cm/s.
For the molecule `C/C(=N\OCc1ccccc1)[C@H]1CCC2C3CC=C4C[C@@H](OC(=O)CCCC(=O)O)CC[C@]4(C)C3CC[C@@]21C` (stereo partly drawn) [Compound 21, 20-Oxo-pregn-5-en-3β-yl hemiglutarate O-(phenylmethyl)oxime], on GluN1/GluN2B receptors [2], the “h ± SEM (apparent Hill coefficient)” value is 1.7 ± 0.3, the EC50 came to 11.3 ± 2 µM and the Emax is 403 ± 56%. For the same molecule, in “in vitro [3]”, the “Metabolic stability” value was “no detectable metabolism after 60 min” and the half-life at 10 µM was greater than 1 h. Also, in “in vitro [4]”, the “PAMPA permeability Retention” value was found to be 95% and the Papp at 5 h, 100 µM was found to be 1.82 ×10⁻⁶ cm/s.
